Measured values taken from the supplement of paper PMC10307832.

How the values were obtained:
Assay in all cases: relative viability (nuclei count vs DMSO), 5 days (fraction); higher = more cells survive
[1] = compound: Cn1cc(-c2cnn3c(N)c(Br)c([C@@H]4CCCNC4)nc23)cn1 + CC(=O)c1c(C)c2cnc(Nc3ccc(N4CCNCC4)cn3)nc2n(C2CCCC2)c1=O [Palbociclib] (partner 0.5 µM)
In short: (§1)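 Lung cancer cell lines in 1536-well plates got either a single drug or a fixed anchor-drug dose together with five library-drug doses (not always all listed) in √10 steps, by pin tool, on the day after seeding. Nuclei were counted after 5 days, and relative viability is the treated-to-vehicle ratio of nuclei counts. Values are medians of duplicate plates.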

[2] = compound: Cn1cc(-c2cnn3c(N)c(Br)c([C@@H]4CCCNC4)nc23)cn1 + CS(=O)(=O)N1CCN(Cc2cc3nc(-c4cccc5[nH]ncc45)nc(N4CCOCC4)c3s2)CC1 [Pictilisib] (partner 1 µM)
In short: as §1

[3] = compound: Cn1cc(-c2cnn3c(N)c(Br)c([C@@H]4CCCNC4)nc23)cn1 + CC(C)C[C@H](NC(=O)[C@H](Cc1ccccc1)NC(=O)c1cnccn1)B(O)O [Bortezomib] (partner 0.002 µM)
In short: as §1

[4] = compound: Cn1cc(-c2cnn3c(N)c(Br)c([C@@H]4CCCNC4)nc23)cn1 + COc1cc2c(Oc3ccc(NC(=O)C4(C(=O)Nc5ccc(F)cc5)CC4)cc3F)ccnc2cc1OCCCN1CCOCC1 [Foretinib] (partner 0.25 µM)
In short: as §1

Cell Line	relative viability ([1]; first compound 0.05 µM)	relative viability ([1]; first compound 0.1581 µM)	relative viability ([1]; first compound 0.5 µM)	relative viability ([1]; first compound 1.581 µM)	relative viability ([1]; first compound 5 µM)	relative viability ([2]; first compound 0.05 µM)	relative viability ([2]; first compound 0.1581 µM)	relative viability ([2]; first compound 0.5 µM)	relative viability ([2]; first compound 1.581 µM)	relative viability ([2]; first compound 5 µM)	relative viability ([3]; first compound 0.05 µM)	relative viability ([3]; first compound 0.1581 µM)	relative viability ([3]; first compound 0.5 µM)	relative viability ([3]; first compound 1.581 µM)	relative viability ([3]; first compound 5 µM)	relative viability ([4]; first compound 0.05 µM)	relative viability ([4]; first compound 0.1581 µM)	relative viability ([4]; first compound 0.5 µM)	relative viability ([4]; first compound 1.581 µM)	relative viability ([4]; first compound 5 µM)
NCI-H2087	0.222	0.292	0.235	0.241	0.177	0.821	1	0.95	0.852	0.803	0.893	0.876	0.872	0.622	0.911	1.18	1.22	0.989	1.32	1
NCI-H2126	0.338	0.332	0.363	0.347	0.408	0.462	0.519	0.512	0.52	0.524	1.1	1.22	1.15	1.02	1.14	1.2	1.3	1.11	1.02	1.53
NCI-H2228	1.03	0.872	0.541	0.393	0.252	0.258	0.286	0.297	0.355	0.351	1.1	1.1	0.943	0.705	0.521	0.747	0.942	0.671	0.738	0.433
NCI-H2347	0.41	0.442	0.421	0.39	0.43	0.77	0.63	0.759	0.264	0.57	0.839	1.01	0.747	0.727	0.869	0.789	0.877	0.815	0.593	0.724
NCI-H2405	0.529	0.46	0.533	0.452	0.389	0.466	0.37	0.396	0.327	0.314	0.961	1.06	1.01	0.95	0.691	0.978	0.952	1.05	0.989	0.919
NCI-H3122	0.169	0.164	0.227	0.182	0.163	0.635	0.647	0.604	0.526	0.606	1.12	1.02	1.04	1.11	1.05	0.977	1.02	0.92	0.992	0.977
PC-3 [JPC-3]	0.499	0.53	–	0.512	0.562	0.692	0.746	0.744	0.667	0.747	0.818	0.834	0.76	0.755	0.907	1.02	1.2	0.997	1.03	1.06
PC-14	0.614	0.358	0.269	0.156	0.121	0.73	0.685	0.558	0.504	0.248	0.936	0.971	0.83	0.549	0.355	0.974	1.04	0.933	0.903	0.53
RERF-LC-KJ	0.983	1.04	1.03	0.863	0.712	0.593	0.53	0.384	0.359	0.346	1.12	1.17	1.02	0.96	0.953	0.98	0.881	0.865	0.727	0.86
SK-LU-1	0.388	0.308	0.366	0.323	0.225	0.569	0.424	0.458	0.365	0.278	1.08	–	0.866	0.486	0.202	0.819	0.709	0.485	0.28	0.211
SW 1573	0.482	0.447	0.333	0.264	0.301	0.48	0.572	0.502	0.461	0.499	1.17	1.29	1.08	0.906	1.02	0.97	1.09	0.865	0.848	1.01
UMC-11	0.346	0.316	0.312	0.304	0.29	0.926	0.782	0.709	0.397	0.431	0.72	0.961	0.558	0.476	0.437	1	0.984	0.851	0.773	0.51
